Test results from US20250381168A1, “VLA4 INHIBITORS AND USES THEREOF” (Washington University, priority 2022, published 2025).
Read-outs that look alike come from different tables or passages of the source.

Assays:
[1] = system: hematopoietic stem/progenitor cells (HSPCs); assay: HSPC mobilization into peripheral blood, colony forming unit (CFU) assay; settings: mice; for No. CFU (×10^3)/mL ± SD, 0.25 hr: 0.25 hr post dose (TABLE 5)
Protocol: HSPC mobilization. […] For those that dissolve in straight saline, a 0.2 mL dose, diluted with saline from the stock solution to provide the target dose (in mg/kg), was injected s.c. to each test mouse.
When doing combination studies with the VLA4 inhibitor plus a CXCR4 inhibitor and/or a CXCL2 agonist, the other agents were dosed as follows:
The CXCR4 inhibitor AMD3100 (Mozobil®, Genzyme, Cambridge, MA, USA) suspension was prepared in PBS and administered s.c. at a dose of 5 mg/kg.
Recombinant human CXCL2 (Groβt; R & D systems) was reconstituted in sterile Ca^+2/Mg^+2-free phosphate buffered saline (PBS) and injected subcutaneously (s.c.) at a dose of 2.5 mg/kg.
Colony forming unit (CFU) assay. Peripheral blood (PB) was drawn from the facial vein without anaesthesia into K/EDTA anti-coagulated tubes (Sarstedt AG & Co, NOmbrecht, Germany) at various time points post dosing of the test compounds. Red blood cells were removed from aliquots of blood using hypotonic lysis (Ammonium-Chloride-Potassium, ACK buffer, 5-10 min at RT) and samples were mixed with 2 mL mouse methylcellulose complete media, supplemented with a cocktail of recombinant cytokines (HS0007; R & D Systems, Minneapolis, USA). Cultures were plated in duplicate in 35 mm dishes and placed in a humidified chamber with 5% CO2 at 37° C. After 7 d of culture, colonies containing at least 50 cells were counted using an inverted microscope in a blinded fashion.

VLA-4 (a4b1) = VLA-4 (a4b1) (Homo sapiens (Human), UniProt P05556+P13612); assay: sVCAM flow cytometry cell-based assay (inhibition of soluble VCAM-1 binding to G2 ALL cells);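 further: compounds at 0.1 to 1000 nM preincubated 30 min with G2 ALL cells, then VCAM/Fc added for 30 min, bound VCAM-1 detected by PE secondary antibody, percent binding cells by flow cytometry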
[2] = inhibition of sVCAM-1 binding to human G2 ALL cells (TABLE 3), read-out: SVCAM-1, IC50
[3] = as listed in TABLE 5, read-out: sVCAM IC50
[4] = single s.c. injection, peripheral blood
[5] = single s.c. injection, peripheral blood, 2 hr post dose (TABLE 5)
[6] = single s.c. injection, peripheral blood, 4 hr post dose (TABLE 5)

VLA-4 (a4b1), sequence (P13612 34-1032): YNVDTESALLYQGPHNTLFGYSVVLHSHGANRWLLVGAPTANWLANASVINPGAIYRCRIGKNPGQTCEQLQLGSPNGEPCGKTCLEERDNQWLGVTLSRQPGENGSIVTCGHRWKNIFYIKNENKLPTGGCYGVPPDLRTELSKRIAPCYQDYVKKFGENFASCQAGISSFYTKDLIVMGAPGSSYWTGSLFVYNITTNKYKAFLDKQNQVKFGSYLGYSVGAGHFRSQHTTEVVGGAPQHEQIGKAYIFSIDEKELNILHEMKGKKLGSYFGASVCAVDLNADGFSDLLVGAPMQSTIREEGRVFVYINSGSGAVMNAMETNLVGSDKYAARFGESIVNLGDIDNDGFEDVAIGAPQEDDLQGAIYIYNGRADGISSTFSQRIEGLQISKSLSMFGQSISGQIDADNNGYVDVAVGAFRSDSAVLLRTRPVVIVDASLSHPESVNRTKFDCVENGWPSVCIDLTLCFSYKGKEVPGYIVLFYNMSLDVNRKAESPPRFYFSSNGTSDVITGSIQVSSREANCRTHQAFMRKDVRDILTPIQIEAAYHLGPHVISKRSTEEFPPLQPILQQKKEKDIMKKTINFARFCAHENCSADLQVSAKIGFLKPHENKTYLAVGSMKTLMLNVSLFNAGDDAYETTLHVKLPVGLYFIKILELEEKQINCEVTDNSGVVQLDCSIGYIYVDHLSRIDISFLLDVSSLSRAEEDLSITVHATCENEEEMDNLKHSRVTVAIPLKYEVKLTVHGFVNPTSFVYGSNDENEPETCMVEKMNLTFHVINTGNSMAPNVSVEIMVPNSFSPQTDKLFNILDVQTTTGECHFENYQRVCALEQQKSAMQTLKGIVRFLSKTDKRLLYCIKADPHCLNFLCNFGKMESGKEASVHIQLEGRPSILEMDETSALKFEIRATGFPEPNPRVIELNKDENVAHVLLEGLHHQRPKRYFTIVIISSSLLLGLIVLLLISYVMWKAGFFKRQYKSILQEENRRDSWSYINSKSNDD
VLA-4 (a4b1), sequence (P05556 21-798): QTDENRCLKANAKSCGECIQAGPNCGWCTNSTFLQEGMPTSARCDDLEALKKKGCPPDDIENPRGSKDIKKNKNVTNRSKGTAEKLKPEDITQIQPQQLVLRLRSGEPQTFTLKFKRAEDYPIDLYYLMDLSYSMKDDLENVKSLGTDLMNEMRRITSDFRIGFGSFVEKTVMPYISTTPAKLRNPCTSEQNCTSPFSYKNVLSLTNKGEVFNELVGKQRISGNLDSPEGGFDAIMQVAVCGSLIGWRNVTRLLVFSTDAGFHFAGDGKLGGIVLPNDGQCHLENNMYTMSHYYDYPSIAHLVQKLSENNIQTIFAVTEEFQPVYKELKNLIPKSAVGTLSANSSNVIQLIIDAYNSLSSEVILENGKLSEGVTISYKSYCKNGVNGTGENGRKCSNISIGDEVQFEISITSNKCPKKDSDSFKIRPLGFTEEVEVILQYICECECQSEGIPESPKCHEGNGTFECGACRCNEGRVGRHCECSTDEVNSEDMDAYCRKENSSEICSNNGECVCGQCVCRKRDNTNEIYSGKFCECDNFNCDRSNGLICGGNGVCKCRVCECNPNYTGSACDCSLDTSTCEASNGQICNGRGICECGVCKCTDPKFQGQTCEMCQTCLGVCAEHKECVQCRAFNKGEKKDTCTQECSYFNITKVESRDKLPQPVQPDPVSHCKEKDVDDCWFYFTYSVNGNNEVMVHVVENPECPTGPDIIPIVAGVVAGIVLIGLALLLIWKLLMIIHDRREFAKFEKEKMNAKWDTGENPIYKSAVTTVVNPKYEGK

c1cc(CN2CCCNCCNCCCNCC2)ccc1CN1CCCNCCNCCCNCC1 [AMD3100, plerixafor]
No. CFU (×10^3)/mL ± SD, 2 hr ([1]; single dose alone or in combination with AMD3100 (5 mg/kg s.c.), peripheral blood, 2 hr (TABLE 14)): 3.42 ± 1.42 (×10^3)/mL | No. CFU (×10^3)/mL ± SD, 3 hr ([1]; single dose alone or in combination with AMD3100 (5 mg/kg s.c.), peripheral blood, 3 hr (TABLE 14)): 5.08 ± 2.32 (×10^3)/mL | No. CFU (×10^3)/mL ± SD, 5 hr ([1]; single dose alone or in combination with AMD3100 (5 mg/kg s.c.), peripheral blood, 5 hr (TABLE 14)): 2.38 ± 0.73 (×10^3)/mL

O=C(O)[C@H](Cc1ccc(OC(=O)N2CCCC2)cc1)NC(=O)[C@@H]1CCCN1S(=O)(=O)c1ccccc1 [BOP, (N-benzenesulfonyl)-L-prolyl-L-O-(1-pyrrolidinylcarbonyl)tyrosine]
IC50 (VLA-4 (a4b1); as listed in TABLE 13, for the VLA-4 inhibitor alone, read-out: sVCAM IC50): 47 nM | IC50 (VLA-4 (a4b1); [2]): 47.1 nM | HSPC mobilization, result in words ([1]; single dose): rapid but transient mobilization of HSPCs but are returning to baseline by 2 hours

CN(C)c1ccc2c(c1)c(=O)n(-c1ccc(C[C@H](NC(=O)c3c(Cl)cccc3Cl)C(=O)O)cc1)c(=O)n2C [Carotegrast]
IC50 (VLA-4 (a4b1); as listed in TABLE 20, read-out: sVCAM IC50): 118 nM | IC50 (VLA-4 (a4b1); [2]): 118 nM | No. CFU (×10^3)/mL ± SD, 1 hr ([1]; single dose, peripheral blood, 1 hr post dose (TABLE 20)): 0.58 ± 0.19 (×10^3)/mL | No. CFU (×10^3)/mL ± SD, 4 hr ([1]; single dose, peripheral blood, 4 hr post dose (TABLE 20)): 0.18 ± 0.08 (×10^3)/mL | No. CFU (×10^3)/mL ± SD, 8 hr ([1]; single dose, peripheral blood, 8 hr post dose (TABLE 20)): 0.19 ± 0.09 (×10^3)/mL

COCCOCCOCCOCCOCCOCCOCCOCCOCCOCCOCCOCCOCCOCCOCCOCCOCCOCCOCCOCCOCCOCCOCCOCCSCc1cc(OC)c(-c2ccc(C[C@H](NC(=O)[C@@H]3CCCN3S(=O)(=O)c3cc(Cl)cc(Cl)c3)C(=O)O)cc2)c(OC)c1 [Example 7, (2S)-2-[[(2S)-1-(3,5-dichlorophenyl)sulfonylpyrrolidine-2-carbonyl]amino]-3-[4-[2,6-dimethoxy-4-[2-[2-[2-[2-[2-[2-[2-[2-[2-[2-[2-[2-[2-[2-[2-[2-[2-[2-[2-[2-[2-[2-[2-(2-thiomethylethoxy)ethoxy]ethoxy]ethoxy]ethoxy]ethoxy]ethoxy]ethoxy]ethoxy]ethoxy]ethoxy]ethoxy]ethoxy]ethoxy]ethoxy]ethoxy]ethoxy]ethoxy]ethoxy]ethoxy]ethoxy]ethoxy]ethoxy]ethoxymethyl]phenyl]phenyl]propanoic acid]
IC50 (VLA-4 (a4b1); as listed in TABLE 11, read-out: sVCAM IC50): 1.36 nM | IC50 (VLA-4 (a4b1); [2]): 1.36 nM | No. CFU (x10^3)/mL ± SD, 2 hr ([1]; single dose, peripheral blood, 2 hr post dose (TABLE 11)): 2.53 ± 1.11 (x10^3)/mL | No. CFU (x10^3)/mL ± SD, 4 hr ([1]; single dose, peripheral blood, 4 hr post dose (TABLE 11)): 3.91 ± 1.44 (x10^3)/mL | No. CFU (x10^3)/mL ± SD, 6 hr ([1]; single dose, peripheral blood, 6 hr post dose (TABLE 11)): 2.96 ± 1.15 (x10^3)/mL | No. CFU (x10^3)/mL ± SD, 24 hr ([1]; single dose, peripheral blood, 24 hr post dose (TABLE 11)): 0.15 ± 0.05 (x10^3)/mL

COc1cc(CO)cc(OC)c1-c1ccc(C[C@H](NC(=O)c2c(Cl)cc(C(=O)O)cc2Cl)C(=O)O)cc1 [Example C2]
IC50 (VLA-4 (a4b1); [3]): 3.83 nM | IC50 (VLA-4 (a4b1); [2]): 3.83 nM | No. CFU (×10^3)/mL ± SD, 0.25 hr [1, 4]: 4.08 ± 1.66 (×10^3)/mL | No. CFU (×10^3)/mL ± SD, 2 hr [1, 5]: 2.87 ± 1.47 (×10^3)/mL | No. CFU (×10^3)/mL ± SD, 4 hr [1, 6]: 0.53 ± 0.30 (×10^3)/mL

CCOCc1cc(OC)c(-c2ccc(C[C@H](NC(=O)c3c(Cl)cc(C(=O)O)cc3Cl)C(=O)O)cc2)c(OC)c1 [Example C3]
IC50 (VLA-4 (a4b1); [3]): 1.35 nM | IC50 (VLA-4 (a4b1); [2]): 1.35 nM | No. CFU (×10^3)/mL ± SD, 0.25 hr [1, 4]: 3.69 ± 0.52 (×10^3)/mL | No. CFU (×10^3)/mL ± SD, 2 hr [1, 5]: 1.58 ± 0.74 (×10^3)/mL | No. CFU (×10^3)/mL ± SD, 4 hr [1, 6]: 0.30 ± 0.11 (×10^3)/mL

COCCOCCOCCOCc1cc(OC)c(-c2ccc(C[C@H](NC(=O)c3c(Cl)cc(C(=O)O)cc3Cl)C(=O)O)cc2)c(OC)c1 [Example C4]
IC50 (VLA-4 (a4b1); [3]): 1.69 nM | IC50 (VLA-4 (a4b1); as listed in TABLE 17, read-out: sVCAM IC50): 1.69 nM | IC50 (VLA-4 (a4b1); [2]): 1.69 nM | time to which HSPC mobilization is extended after a single dose [1]: ≤ 2 h | No. CFU (×10^3)/mL ± SD, 2 hr ([1]; alone or in combination with Plerixafor and tGroβ, peripheral blood, 2 hr (TABLE 17)): 2.91 ± 0.83 (×10^3)/mL | No. CFU (×10^3)/mL ± SD, 4 hr ([1]; alone or in combination with Plerixafor and tGroβ, peripheral blood, 4 hr (TABLE 17)): 0.53 ± 0.16 (×10^3)/mL | No. CFU (×10^3)/mL ± SD, 6 hr ([1]; alone or in combination with Plerixafor and tGroβ, peripheral blood, 6 hr (TABLE 17)): 0.28 ± 0.09 (×10^3)/mL | No. CFU (×10^3)/mL ± SD, 0.25 hr [1, 4]: 4.73 ± 1.31 (×10^3)/mL | No. CFU (×10^3)/mL ± SD, 2 hr [1, 5]: 1.47 ± 0.51 (×10^3)/mL | No. CFU (×10^3)/mL ± SD, 4 hr [1, 6]: 0.49 ± 0.12 (×10^3)/mL
